Test results reported in patent US20080268451A1, “MEASUREMENT OF AN INSOLUBLE ANALYTE IN A SAMPLE” (priority 2007, published 2008).

Columns and labels:
[1] = test system: Cyp1A1; test: qNPA gene expression, rifampicin-treated canine hepatocytes; assay type: cell-based; conditions: 0-10 μM rifampicin
[2] = test system: Cyp2A337; conditions: canine hepatocytes, 0-10 μM rifampicin, qNPA
[3] = test system: Cyp2D6; test: qNPA gene expression, rifampicin-treated human primary liver cells; conditions: 0-10 μM rifampicin
[4] = test system: Cyp2B6; test: as above; conditions: 0-10 μM rifampicin
[5] = test system: Cyp2D15; test: qNPA gene expression, rifampicin-treated canine hepatocytes; assay type: cell-based; conditions: 0-10 μM rifampicin

Cyp1A1 gene expression [1]: upregualted | Cyp2A337 gene expression [2]: upregualted | Cyp2D6 transcript level ([3]; qNPA): suppressed | suppression of Cyp2D6 ([3]; qNPA (Panel a of FIG. 27)): less than 50% | Cyp2B6 transcript level (enzyme induction) [4]: induced | Cyp2D15 gene expression [5]: upregualted
SMILES: CO[C@H]1/C=C/O[C@@]2(C)Oc3c(C)c(O)c4c(O)c(c(/C=N/N5CCN(C)CC5)c(O)c4c3C2=O)NC(=O)/C(C)=C\C=C\[C@H](C)[C@H](O)[C@@H](C)[C@@H](O)[C@@H](C)[C@H](OC(C)=O)[C@@H]1C [rifampicin]
